In article PMC2736327 (Molecular carcinogenesis, 2009):

Target: autotaxin (ATX) (Homo sapiens, UniProt Q13822)
Type: biochemical

Substance VPC8a202 has a Ki of about 390 nM.
